Data: PMC10894229, “Novel antimicrobial peptides against Cutibacterium acnes designed by deep learning” (Scientific Reports, 2024)
Like-named read-outs stand apart in the source and are kept apart here. Ends that are not written are not given here.

Tests used:
[1] = tested on: rabbit red blood cells (rRBCs); assay: Hemolytic activity assay; format: cell-based
Description: The hemolytic activity of peptides was assayed on rabbit red blood cells (rRBCs)[43]. Briefly, 2% rRBCs (150 μL) were incubated in the presence of various peptide concentrations (50 μL) at 37 °C for 2 h. After centrifugation, the supernatants were collected for measuring absorbance at 545 nm. PBS and 0.01% Triton X-100 were used as the negative (no hemolysis) and positive (100% hemolysis) control, respectively. Triplicate tests were performed.

[2] = tested on: human keratinocytes (HaCaT); assay: HaCaT cell viability, CCK-8 assay; format: cell-based
Description: HaCaT (IM-H225) cells from Xiamen Immocell Biotechnology Co., Ltd were cultured in DMEM high glucose medium (4.5 g/L, Gibco, USA), supplemented with 10% fetal bovine serum (Gibco, USA), 100 U/mL of penicillin and 100 μg/mL of streptomycin in a 5% CO2 fully humidified environment at 37 °C.
Cell Counting Kit-8 (CCK-8; Biosharp, China) was used to assess the rate of cellular proliferation and quantify cell viability. In brief, HaCaT cells were seeded in 96-well plates with 100 μL of medium at a density of 1 × 10^4 cells per well. After incubation of cells overnight, peptides were added into the medium for another 24 h incubation. Then, 10 μL of CCK8 solution was applied to each well and incubated for 1 h at 37 °C. Finally, the absorbance values at 450 nm were determined using a microplate reader (SYNERGY-H1, BioTek, USA). Two columns of the plate were kept for negative control (medium only) and growth control (medium with HaCaT cell). All experiments were conducted in triplicate.

C. acnes (BNCC 336649) = conditions: for Concentration with antimicrobial activity >50%: C. acnes; for Concentration with antimicrobial activity >50% / Category of in vitro test antimicrobial activity against C. acnes: supplementary Table 5; for Antimicrobial activity > 50% against C. acnes: broth microdilution, 48 h, OD 630 nm
Description: The strain of C. acnes (BNCC 336649) was cultured in Wilkins-Chalgren Anaerobe Broth (QingDao RiShui Bio-technologies, 11071) at 37 °C under an anaerobic atmosphere performed by a Labiophy HL-B automatic hypoxic workstation (Dalian, Liaoning Province, Labiophy HL-B), inflated with a gas mix of 15% carbon dioxide, 83% nitrogen, and 2% hydrogen.
Logarithmic phase growth bacteria were used for antimicrobial testing.
To determine the MIC values, the broth microdilution method was used. […] Briefly, peptide samples were prepared as a stock solution in water and then diluted. 180 μL of the bacterial suspension (10^7 CFU/mL) and 20 μL of the tested sample were added together into 96-Well Deep Well Plates and incubated 24 h for E. coli and S. aureus or 48 h for C. acnes and C. albicans. For each test, two columns of the plate were kept for sterility control (broth only) and growth control (broth with bacterial inoculums, no antibiotics). The optical density of cultures was measured at 630 nm by a microplate reader (SYNERGY-H1, BioTek, USA) to estimate bacterial growth. All experiments were conducted in triplicate. We used ciprofloxacin (CPFX) as the antibiotic control for antimicrobial testing.

| Substance | Hemolysis Index [1] | Cytotoxic Index [2] | HaCaT cell tolerance up to [2] [µg/mL] | Concentration with antimicrobial activity >50% (C. acnes (BNCC 336649)) | Antimicrobial activity > 50% against C. acnes (C. acnes (BNCC 336649); at 25 µg/mL) | Antimicrobial activity > 50% against C. acnes (C. acnes (BNCC 336649); at 50 µg/mL) | Antimicrobial activity > 50% against C. acnes (C. acnes (BNCC 336649); at 100 µg/mL) | Category of in vitro test antimicrobial activity against C. acnes (C. acnes (BNCC 336649)) | Hemolysis Index ([1]; ratio of EC90 (rabbit red blood cells) to MIC of C. acnes) | Cytotoxic Index ([2]; ratio of EC90 (HaCaT) to MIC of C. acnes) |
| --- | --- | --- | --- | --- | --- | --- | --- | --- | --- | --- |
| KRIVHRLLKKLHSLF [AMP-9] | 30 | 20 | 160 | – | – | – | – | – | – | – |
| GIFKKITGKLFKWIK [AMP-5] | 30 | 10 | 80 | – | – | – | – | – | – | – |
| KILGKLLKWASKIW [AMP-31] | 20 | 8 | – | – | – | – | – | – | – | – |
| LSKWLKKLGKLLAG [AMP-33] | 20 | 20 | 80 | – | – | – | – | – | – | – |
| HFLGVVAKLVSKLF [AMP-38] | 16 | 10 | 80 | – | – | – | – | – | – | – |
| GVFDWLKKLGKKLAG [AMP-14, AI designed peptide] | – | – | 80 | 12.5 µg/mL | Inhibit (A peptide was deemed to have antimicrobial activity if C. acnes growth was inhibited by more than 50% at a given concentration) | Inhibit (A peptide was deemed to have antimicrobial activity if C. acnes growth was inhibited by more than 50% at a given concentration) | Inhibit (A peptide was deemed to have antimicrobial activity if C. acnes growth was inhibited by more than 50% at a given concentration) | Strong AMP | – | – |
| KKIFKRIVKIIKRLL [AMP-29] | 32 | 16 | – | – | – | – | – | – | – | – |
| KKWRKVLKLIKRLVG-NH2 [AMP-12] | 40 | 16 | – | – | – | – | – | – | – | – |
| GWAKRLATRLAKAIL-NH2 [AMP-27] | 6.4 | 12.8 | 320 | – | – | – | – | – | – | – |
| KKLACRLWKWLAKKA [AMP-21, AI designed peptide] | – | – | 80 | 12.5 µg/mL | Inhibit (A peptide was deemed to have antimicrobial activity if C. acnes growth was inhibited by more than 50% at a given concentration) | Inhibit (A peptide was deemed to have antimicrobial activity if C. acnes growth was inhibited by more than 50% at a given concentration) | Inhibit (A peptide was deemed to have antimicrobial activity if C. acnes growth was inhibited by more than 50% at a given concentration) | Strong AMP | – | – |
| FKRLKKLFKKIWNWK [HPA3NT3, reference compound] | – | – | – | – | – | – | – | – | 32 | 8 |
| AKRIVKLIKNFFRKL-NH2 [AMP-25] | 60 | 20 | 80 | – | – | – | – | – | – | – |
| KKLAGLAKKWWKPLR [AMP-22] | – | – | – | – | No (A peptide was deemed to have antimicrobial activity if C. acnes growth was inhibited by more than 50% at a given concentration) | Inhibit (A peptide was deemed to have antimicrobial activity if C. acnes growth was inhibited by more than 50% at a given concentration) | Inhibit (A peptide was deemed to have antimicrobial activity if C. acnes growth was inhibited by more than 50% at a given concentration) | Medium AMP | – | – |
| KIAKRLAKKILNAI [AMP-10] | – | – | – | 12.5 µg/mL | Inhibit (A peptide was deemed to have antimicrobial activity if C. acnes growth was inhibited by more than 50% at a given concentration) | Inhibit (A peptide was deemed to have antimicrobial activity if C. acnes growth was inhibited by more than 50% at a given concentration) | Inhibit (A peptide was deemed to have antimicrobial activity if C. acnes growth was inhibited by more than 50% at a given concentration) | Strong AMP | – | – |
| AIHKLAHHIAKLAKK [AMP-35] | – | – | – | no | No (A peptide was deemed to have antimicrobial activity if C. acnes growth was inhibited by more than 50% at a given concentration) | No (A peptide was deemed to have antimicrobial activity if C. acnes growth was inhibited by more than 50% at a given concentration) | No (A peptide was deemed to have antimicrobial activity if C. acnes growth was inhibited by more than 50% at a given concentration) | No AMP | – | – |
| RISSLLKRLAIKIK [AMP-16] | – | – | – | 25 µg/mL | Inhibit (A peptide was deemed to have antimicrobial activity if C. acnes growth was inhibited by more than 50% at a given concentration) | Inhibit (A peptide was deemed to have antimicrobial activity if C. acnes growth was inhibited by more than 50% at a given concentration) | Inhibit (A peptide was deemed to have antimicrobial activity if C. acnes growth was inhibited by more than 50% at a given concentration) | Medium AMP | – | – |
